Where “and” joins values, the source holds several entries; their conditions need not be identical. Identical values can stand only once.
Experiments:
[1] = tested on: PC3-PIP (PSMA positive) and PC-3 tumors (PSMA negative); assay: Biodistribution of 177Lu labeled compounds 4 and 7 in tumor bearing nude mice; format: in vivo, CD-1 male nude mice
Protocol: (§1) ^177Lu labeling: To 10 μg ligand (1 mg/mL DMSO) were added 15 μL of 2.0 N NaOAc, 400 μL 0.05 N HCl, and 20 μL ^177Lu-solution (780 μCi (Capintec setting 450 (reading×10)). The reaction was heated with a heating block at 95° C. for 1 hour in a 3 mL closed vial. After cooling, the sample was analyzed by HPLC (HPLC: Eclipse XDB-C18 150×4.6 mm, gradient, 1 mL/min; A: 0.1% TFA in water; B: 0.1% TFA in ACN: 0-4 min A/B 85/15%; 4-11 min: from 85/15 to 30/70%; 11-14 min: from 30/70% to 85/15%). Radiochemical purity of [^177Lu]4 (FIG. 2) and [^177Lu]7 was >98% and injected doses were stable at 48 hr after formulation.
(§2) For iv injection 150 μL of labeled solution was diluted with saline to 3.75mL. Mice were injected with 150 μL of formulated dose. Injected radioactivity was 100 μCi and PSMA ligand amount was constant at 0.72 nmole/mouse.
Biodistribution of [^68Ga]4, [^177Lu]4 and [^177Lu]7 was determined in nude mice bearing PIP PC3 (PSMA positive) and PC3 (PSMA negative) tumors on the left and right shoulder, respectively, over a period of 192 h (Table 3a, 3b and 3c). […] The uptake in PC3 tumors (PSMA negative) of both ligands, [^177Lu]4 and [^177Lu]7, was clearly much lower than those of PC-3 PIP tumors (PSMA positive).

[2] = tested on: PSMA-positive cell line, PIP PC3; assay: In vitro cell uptake, PIP PC3 cells; format: cell-based
Protocol: To determine the cell uptakes of the [^177Lu] labelled ligands, 5×10^5 cells/well were grown in 12-well plates in 1 mL of medium for 48 h. The cells were washed twice with PBS, and 900 μL fresh media were added. […] All samples were prepared in triplicate. Following the incubation at 37° C., cells were washed twice to remove unbound activity and afterwards lysed in 1 mL of 0.5 M NaOH. Activity was measured in a gamma counter. Aliquots of the solution added to the cells were also measured for the calculation of the cellular uptake as % ID.

[3] = tested on: PSMA-negative cell line, PC3; assay: In vitro cell uptake, PC3 cells; format: cell-based; conditions: PC3 (do not express PSMA), 60 min
Protocol: To determine the cell uptakes of the [^177Lu] labelled ligands, 5×10^5 cells/well were grown in 12-well plates in 1 mL of medium for 48 h. The cells were washed twice with PBS, and 900 μL fresh media were added. Radiolabelled ligand was added and the PSMA-inhibitor (2-PMPA) was applied in a final concentration of 10 μM to determine unspecific binding. All samples were prepared in triplicate. Following the incubation at 37° C., cells were washed twice to remove unbound activity and afterwards lysed in 1 mL of 0.5 M NaOH. Activity was measured in a gamma counter. Aliquots of the solution added to the cells were also measured for the calculation of the cellular uptake as % ID.

[4] = Stability of injected doses after formulation; format: physicochemical; conditions: at 48 hr after formulation
Protocol: ^68Ga labeling: To 15 nmole ligand 4 (1 mg/mL DMSO) were added 20 μL of 2.0 N NaOAc, 500 μL ^68Ga-solution (2.25 mCi). The reaction was heated in a heating block at 90° C. for 10 minutes in a 3 mL closed vial. After cooling, the sample was analyzed by HPLC (HPLC: Eclise XDB C18 150×4.6 mm, gradient, 2 mL/min; A: 0.1% TFA in water; B: 0.1% TFA in ACN: 0-2 min 100% A; 2-4 min: from 0% to 100% B; 4-9 min: 100% B; 9-10 min: from 100% to 0% B). Radiochemical purity of [^68Ga]4 was >99% RCP (FIG. 1) and injected doses were stable at 2 hr after formulation.
as §1, §2

## O=C(O)CC[C@H](NC(=O)N[C@@H](CCCCNC(=O)[C@H](Cc1ccccc1)NC(=O)COc1ccc(C[C@H](NC(=O)CNC(=O)CCC(C(=O)O)N2CCN(CC(=O)O)CCN(C(CCC(=O)NCCOCCOCCNC(=O)CCCc3ccc(I)cc3)C(=O)O)CCN(CC(=O)O)CC2)C(=O)O)cc1)C(=O)O)C(=O)O.[177Lu] (stereo partly shown) [[^177Lu]7]
[1]; 1 hr
  Biodistribution: Blood: 13.20 ± 3.17 % dose/g
  Biodistribution: Bone: 1.78 ± 0.97 % dose/g
  Biodistribution: Brain: 0.35 ± 0.04 % dose/g
  Biodistribution: Heart: 3.79 ± 0.67 % dose/g
  Biodistribution: Intestine: 1.89 ± 0.18 % dose/g
  Biodistribution: Kidney: 37.38 ± 4.08 % dose/g
  Biodistribution: Liver: 2.63 ± 0.69 % dose/g
  Biodistribution: Lung: 5.89 ± 0.53 % dose/g
  Biodistribution: Muscle: 1.88 ± 0.27 % dose/g
  Biodistribution: PC3 tumor: 5.26 ± 1.63 % dose/g
  Biodistribution: PIP PC3 tumor: 12.51 ± 0.94 % dose/g
  Biodistribution: Pancreas: 1.71 ± 0.40 % dose/g
  Biodistribution: Skin: 5.18 ± 1.59 % dose/g
  Biodistribution: Spleen: 2.87 ± 0.82 % dose/g
  Biodistribution: Stomach: 1.57 ± 0.39 % dose/g
[1]; 4 hrs
  Biodistribution: Blood: 12.06 % dose/g and 12.06 ± 2.26 % dose/g
  Biodistribution: Bone: 2.05 ± 0.89 % dose/g
  Biodistribution: Brain: 0.37 ± 0.08 % dose/g
  Biodistribution: Heart: 3.96 ± 0.63 % dose/g
  Biodistribution: Intestine: 2.97 ± 1.71 % dose/g
  Biodistribution: Kidney: 60.07 ± 2.41 % dose/g
  Biodistribution: Liver: 2.92 ± 0.85 % dose/g
  Biodistribution: Lung: 6.07 ± 0.66 % dose/g
  Biodistribution: Muscle: 1.55 ± 0.84 % dose/g
  Biodistribution: PC3 tumor: 5.17 ± 1.02 % dose/g
  Biodistribution: PIP PC3 tumor: 35.34 ± 12.11 % dose/g
  Biodistribution: Pancreas: 2.08 ± 0.82 % dose/g
  Biodistribution: Skin: 5.85 ± 2.04 % dose/g
  Biodistribution: Spleen: 6.16 ± 2.81 % dose/g
  Biodistribution: Stomach: 1.86 ± 1.12 % dose/g
[1]; 24 hrs (1 day)
  Biodistribution: Blood: 1.79 ± 0.98 % dose/g
  Biodistribution: Bone: 0.33 ± 0.14 % dose/g
  Biodistribution: Brain: 0.08 ± 0.04 % dose/g
  Biodistribution: Heart: 0.73 ± 0.42 % dose/g
  Biodistribution: Intestine: 0.41 ± 0.24 % dose/g
  Biodistribution: Kidney: 18.51 ± 7.79 % dose/g
  Biodistribution: Liver: 0.57 ± 0.27 % dose/g
  Biodistribution: Lung: 1.33 ± 0.85 % dose/g
  Biodistribution: Muscle: 0.36 ± 0.24 % dose/g
  Biodistribution: PC3 tumor: 2.15 ± 0.69 % dose/g
  Biodistribution: PIP PC3 tumor: 35.34±12.11 % dose/g and 34.36 ± 6.87 % dose/g
  Biodistribution: Pancreas: 0.45 ± 0.30 % dose/g
  Biodistribution: Skin: 1.37 ± 0.63 % dose/g
  Biodistribution: Spleen: 0.75 ± 0.17 % dose/g
  Biodistribution: Stomach: 0.36 ± 0.23 % dose/g
[1]; 48 hrs (2 days)
  Biodistribution: Blood: 0.84 ± 0.25 % dose/g
  Biodistribution: Bone: 0.19 ± 0.03 % dose/g
  Biodistribution: Brain: 0.06 ± 0.01 % dose/g
  Biodistribution: Heart: 0.59 ± 0.21 % dose/g
  Biodistribution: Intestine: 0.23 ± 0.07 % dose/g
  Biodistribution: Kidney: 16.13 ± 6.19 % dose/g
  Biodistribution: Liver: 0.42 ± 0.08 % dose/g
  Biodistribution: Lung: 0.93 ± 0.26 % dose/g
  Biodistribution: Muscle: 0.22 ± 0.07 % dose/g
  Biodistribution: PC3 tumor: 1.77 ± 0.55 % dose/g
  Biodistribution: PIP PC3 tumor: 41.80 ± 10.71 % dose/g
  Biodistribution: Pancreas: 0.39 ± 0.18 % dose/g
  Biodistribution: Skin: 0.63 ± 0.03 % dose/g
  Biodistribution: Spleen: 1.27 ± 1.12 % dose/g
  Biodistribution: Stomach: 0.18 ± 0.02 % dose/g
[1]; 96 hrs (4 days)
  Biodistribution: Blood: 0.11 ± 0.10 % dose/g
  Biodistribution: Bone: 0.11 ± 0.01 % dose/g
  Biodistribution: Brain: 0.02 ± 0.01 % dose/g
  Biodistribution: Heart: 0.30 ± 0.23 % dose/g
  Biodistribution: Intestine: 0.19 ± 0.18 % dose/g
  Biodistribution: Kidney: 4.28 ± 2.61 % dose/g
  Biodistribution: Liver: 0.22 ± 0.09 % dose/g
  Biodistribution: Lung: 0.31 ± 0.22 % dose/g
  Biodistribution: Muscle: 0.18 ± 0.12 % dose/g
  Biodistribution: PC3 tumor: 0.97 ± 0.56 % dose/g
  Biodistribution: PIP PC3 tumor: 24.23 ± 13.09 % dose/g
  Biodistribution: Pancreas: 0.09 ± 0.06 % dose/g
  Biodistribution: Skin: 0.46 ± 0.22 % dose/g
  Biodistribution: Spleen: 0.52 ± 0.30 % dose/g
  Biodistribution: Stomach: 0.09 ± 0.06 % dose/g
[1]; 192 hrs (8 days)
  Biodistribution: Blood: 0.01 ± 0.00 % dose/g
  Biodistribution: Bone: 0.09 ± 0.01 % dose/g
  Biodistribution: Brain: 0.01 ± 0.00 % dose/g
  Biodistribution: Heart: 0.07 ± 0.01 % dose/g
  Biodistribution: Intestine: 0.12 ± 0.05 % dose/g
  Biodistribution: Kidney: 1.58 ± 0.43 % dose/g
  Biodistribution: Liver: 0.12 ± 0.02 % dose/g
  Biodistribution: Lung: 0.09 ± 0.02 % dose/g
  Biodistribution: Muscle: 0.03 ± 0.00 % dose/g
  Biodistribution: PC3 tumor: 0.35 ± 0.03 % dose/g
  Biodistribution: PIP PC3 tumor: 13.14 ± 2.57 % dose/g
  Biodistribution: Pancreas: 0.03 ± 0.00 % dose/g
  Biodistribution: Skin: 0.16 ± 0.03 % dose/g
  Biodistribution: Spleen: 0.30 ± 0.07 % dose/g
  Biodistribution: Stomach: 0.10 ± 0.09 % dose/g
[1]; mouse, in vivo
  Time of highest uptake in PIP PC3 tumors: 48 h
  Uptake in PC3 tumors (PSMA negative) versus PC-3 PIP tumors (PSMA positive): much lower
[2]; PIP PC3, 5 min
  In vitro cell uptake: 5.0 % ID per 5 × 10^5 cells
[2]; PIP PC3, 15 min
  In vitro cell uptake: 7.8 % ID per 5 × 10^5 cells
[2]; PIP PC3, 30 min
  In vitro cell uptake: 10.1 % ID per 5 × 10^5 cells
[2]; PIP PC3, 60 min
  In vitro cell uptake: 11.4 % ID per 5 × 10^5 cells
[2]; PIP PC3, 60 min, with PSMA inhibitor (2-PMPA, 2 uM)
  In vitro cell uptake: 1.3 % ID per 5 × 10^5 cells
[2]; PIP PC3, 120 min
  In vitro cell uptake: 11.9 % ID per 5 × 10^5 cells
[3]
  In vitro cell uptake: 0.7 % ID per 5 × 10^5 cells
[4]
  Stability of injected doses: stable

From patent US20220125959A1, “PROSTATE-SPECIFIC MEMBRANE ANTIGEN (PSMA) INHIBITORS AS DIAGNOSTIC AND RADIONUCLIDE THERAPEUTIC AGENTS” (FIVE ELEVEN PHARMA INC., priority 2019, published 2022)
